Results on eleven compounds are retold here after article PMC5640562, “Synthesis and anticancer activity of novel quinazolinone-based rhodanines” (Chemistry Central Journal, 2017).

Series [1] relates to HT-1080 cells. As to the kind of experiment: MTT cytotoxicity assay, HT-1080 fibrosarcoma cells. It counts as cell-based, human. The note with it: 3 days incubation, mean of three independent experiments (± standard deviation). As for the experimental part:
(§1) The compounds were tested for their cytotoxic activity on a solid tumor cell line, i.e. HT-1080 originating from a fibrosarcoma (American Type Culture Collection; ATCC, Rockville, MD, USA), and on two leukemia cell lines, i.e. the HL-60 human promyelocytic leukemia (European Collection of Animal Cell Cultures; ECACC, Salisbury, UK) and the K-562 human chronic myelogenous leukemia (ATCC). Furthermore, the human skin fibroblast strain AG01523 (Coriell Institute for Medical Research, Camden, NJ, USA) was also used as normal control. Adherent cells were routinely cultured in Dulbecco’s […] (DMEM), and leukemia cells in RPMI 1640, in an environment of 5% CO2, 85% humidity, and 37 °C. All media were supplemented with penicillin (100 U/ml), streptomycin (100 μg/ml) (media and antibiotics from Biochrom KG, Berlin, Germany), and 10% fetal bovine serum (Life Technologies Europe BV, Thessaloniki, Greece). Adherent cells were subcultured using a trypsin (0.25%; Life Technologies Europe BV)—citrate (0.30%; Sigma, St. Louis, MO, USA) solution. The cytotoxicity assay was performed by a modification of the MTT method. Briefly, the cells were plated in flat-bottomed 96-well microplates at a density of 5000 cells/well, and incubated overnight before the addition of serial dilutions of the test compounds. The cells were incubated with the compounds or the corresponding vehicle (DMSO) concentrations for 3 days. Then, the medium was replaced with MTT (Sigma) in serum-free, phenol-red-free DMEM (1 mg/ml). After incubation for 4 h, the MTT formazan was solubilized in 2-propanol, and the optical density was measured using a FLUOstar Optima (BMG Labtech, Ortenberg, Germany) microplate reader at a wavelength of 550 nm (reference wavelength 660 nm). Doxorubicin hydrochloride (Sigma) was included in the experiments as positive control. The results represent the mean of three independent experiments and are expressed as IC50 [42].
On the technique in general: Formazan colour is commonly taken as a measure of viable cells.

Series [2] can be described thus: MTT cytotoxicity assay, normal skin fibroblast strain AG01523. It counts as cell-based. To be noted: AG01523 normal skin fibroblasts, normal human skin fibroblasts, 3 days incubation, mean of three independent experiments (± standard deviation). As for the experimental part:
as §1

Series [3] concerns HT-1080 cells. The series is described as follows: Flow cytometric analysis of DNA content (cell cycle phase distribution). It counts as cell-based, human. The note with it: 48 h, flow cytometry of DNA content (not shown). In general terms: A flow cytometer gives signals particle by particle.
The subject of series [4] is HL-60 cells. The series is described as follows: MTT cytotoxicity assay, HL-60 promyelocytic leukemia cells. It counts as cell-based, human. The note with it: 3 days incubation, mean of three independent experiments (± standard deviation). As for the experimental part:
as §1

Series [5] concerns K-562 cells. The series is described as follows: MTT cytotoxicity assay, K-562 chronic myelogenous leukemia cells. The format is cell-based, human. The note with it: 3 days incubation, mean of three independent experiments (± standard deviation). The method, then: as §1
Series [6] concerns AG01523 fibroblasts. The series is described as follows: MTT cytotoxicity assay, normal skin fibroblast strain AG01523. The format is cell-based. To be noted: normal human skin fibroblasts, 3 days incubation, mean of three independent experiments (± standard deviation). As for the experimental part:
as §1

With `COc1cc(C=C2SC(=S)NC2=O)ccc1OCc1nc2ccccc2c(=O)n1-c1cccc(C)c1` (hydrate or solvate) [Compound 49, 5-{4-[(3-(3-Methylphenyl)-4-oxo-3,4-dihydroquinazolin-2-yl)methoxy]-3-methoxybenzylidene}-2-thioxothiazolidin-4-one], the melting point (in general, the temperature, or range, at which the solid turns liquid) lay in the range of 154 to 156 °C.

`COc1ccc(-n2c(COc3ccc(C=C4SC(=S)NC4=O)cc3OC)nc3ccccc3c2=O)cc1` (hydrate or solvate) [Compound 50, 5-{4-[(3-(4-Methoxyphenyl)-4-oxo-3,4-dihydroquinazolin-2-yl)methoxy]-3-methoxybenzylidene}-2-thioxothiazolidin-4-one] had a melting point of 148 to 150 °C.

The compound `O=C1NC(=S)SC1=Cc1ccc(OCc2nc3ccccc3c(=O)n2-c2ccccc2)cc1` [Compound 31, 5-{4-[(3-Phenyl-4-oxo-3,4-dihydroquinazolin-2-yl)methoxy]benzylidene}-2-thioxothiazolidin-4-one] came in with a melting point of 230 to 232 °C. Moreover, the half-inhibitory concentration (IC50) (usually the concentration needed to halve the response being measured) in series [1] (Homo sapiens, HT-1080, 72 h) is 42.9 µM.

As to `Cc1cccc(-n2c(COc3ccc(C=C4SC(=S)NC4=O)cc3)nc3ccccc3c2=O)c1` [Compound 39, 5-{4-[(3-(3-Methylphenyl)-4-oxo-3,4-dihydroquinazolin-2yl)methoxy]benzylidene}-2-thioxothiazolidin-4-one], the melting point lay within 165 to 168 °C. The half-inhibitory concentration (IC50) in series [1] (Homo sapiens, HT-1080, 72 h) is 47.5 µM.

For the compound `COc1ccc(-n2c(COc3ccc(C=C4SC(=S)NC4=O)cc3)nc3ccccc3c2=O)cc1` [Compound 40, 5-{4-[(3-(4-Methoxyphenyl)-4-oxo-3,4-dihydroquinazolin-2-yl)methoxy]benzylidene}-2-thioxothiazolidin-4-one], the melting point was 190 to 192 °C (dec.). The compound also came in with an IC50 in series [1] (Homo sapiens, HT-1080, 72 h) of 36.4 µM.

In turn, `COc1cc(C=C2SC(=S)NC2=O)ccc1OCc1nc2ccccc2c(=O)n1-c1ccc(F)cc1` [Compound 42, 5-{4-[(3-(4-Fluorophenyl)-4-oxo-3,4-dihydroquinazolin-2-yl)methoxy]-3-methoxybenzylidene}-2-thioxothiazolidin-4-one] gave a melting point of 163 to 166 °C. The compound also gave an IC50 in series [1] (Homo sapiens, HT-1080, 72 h) of 35.8 µM.

In series [2], `COc1cc(C=C2SC(=S)NC2=O)ccc1OCc1nc2ccccc2c(=O)n1-c1ccc(Cl)cc1` [Compound 43, 5-{4-[(3-(4-Chlorophenyl)-4-oxo-3,4-dihydroquinazolin-2-yl)methoxy]-3-methoxybenzylidene}-2-thioxothiazolidin-4-one] displayed an IC50 at 3 days of over 100 µM. For the same compound, the “Cell cycle phase distribution” value in series [3] was “S-phase arrest”. For the same compound, the IC50 was 10.2 µM in series [1] (Homo sapiens, HT-1080, 72 h); 5.1 µM in series [4] (Homo sapiens, HL-60, 72 h); 4.5 µM in series [5] (Homo sapiens, K562, 72 h). Moreover, the “IC50 HL-60 cytotoxicity” value in series [4] is reported as “low micromolar range”. For the same compound, the “IC50 K-562 cytotoxicity” value in series [5] was “low micromolar range”.

Regarding `COc1cc(C=C2SC(=S)NC2=O)ccc1OCc1nc2ccccc2c(=O)n1-c1cccc(Cl)c1` [Compound 44, 5-{4-[(3-(3-Chlorophenyl)-4-oxo-3,4-dihydroquinazolin-2-yl)methoxy]-3-methoxybenzylidene]-2-thioxothiazolidin-4-one], the melting point fell in the range of 147 to 150 °C. The IC50 in series [1] (Homo sapiens, HT-1080, 72 h) is 28.4 µM.

In series [2], `COc1cc(C=C2SC(=S)NC2=O)ccc1OCc1nc2ccccc2c(=O)n1-c1ccc(Br)cc1` [Compound 45, 5-{4-[(3-(4-Bromophenyl)-4-oxo-3,4-dihydroquinazolin-2-yl)methoxy]-3-methoxybenzylidene}-2-thioxothiazolidin-4-one] came in with an IC50 at 3 days of over 100 µM. In series [3], the “Cell cycle phase distribution” value was “S-phase arrest”. The IC50 in series [1] (Homo sapiens, HT-1080, 72 h) was determined as 8.7 µM; in series [4] (Homo sapiens, HL-60, 72 h) it was 1.2 µM; in series [5] (Homo sapiens, K562, 72 h), 1.5 µM. The “IC50 HL-60 cytotoxicity” value in series [4] was “low micromolar range”. In series [5], the “IC50 K-562 cytotoxicity” value is listed as “low micromolar range”.

As to `COc1cc(C=C2SC(=S)NC2=O)ccc1OCc1nc2ccccc2c(=O)n1-c1ccc(C(F)(F)F)cc1` [Compound 47], the IC50 in series [6] was over 100 µM; in series [1], 15.8 µM; in series [4] it was 2.6 µM; in series [5], 5.1 µM. In series [4], the “IC50 HL-60 cytotoxicity” value is listed as “low micromolar range”. Further, in series [5], the “IC50 K-562 cytotoxicity” value is given as “low micromolar range”.

Regarding `COc1cccc2c1C(=O)c1c(O)c3c(c(O)c1C2=O)C[C@@](O)(C(=O)CO)C[C@@H]3O[C@H]1C[C@H](N)[C@H](O)[C@H](C)O1` [Doxorubicin, reference compound], the IC50 at 3 days in series [2] was 0.875 µM. In addition, the IC50 is 0.012 µM in series [1] (Homo sapiens, HT-1080, 72 h); 0.011 µM in series [4] (Homo sapiens, HL-60, 72 h); 0.212 µM in series [5] (Homo sapiens, K562, 72 h).
